The values that follow are results of earlier work, collected in patent publication US9532941B2, “Method for treatment of hair loss with a combination of natural ingredients” (priority 2011, dated 2017).

One series deals with human 5-α-reductase. The conditions noted are these: cell free assay in vitro.
The next series relates to human hair. The conditions noted are these: in vitro exposure; cell proliferation markers.

As for `C[C@]12CC[C@H]3[C@@H](CCC4=CC(=O)CC[C@@]43C)[C@@H]1CC[C@@H]2O` [testosterone], in the series with human hair follicles (hair follicles treated with 5 mg/ml testosterone), the “growth of hair follicles” value is on record as “Significant growth suppression”.

`Cn1c(=O)c2c(ncn2C)n(C)c1=O` [caffeine]: the “counteraction of testosterone-induced growth suppression” value in the series with human hair follicles (caffeine 0.001% and 0.005%, 5 mg/ml testosterone) is recorded as “counteracted”. Moreover, the “hair follicle growth, caffeine alone” value in the series on human hair follicles (caffeine alone) is “significant stimulation of hair follicle growth”.

In the case of epigallocatechin-3-gallate [EGCG], the “inhibition of human 5-α-reductase, cell free” value in the series with human 5-α-reductase is on record as “potently inhibited”. In the series with human hair, the human hair growth result is “stimulates human hair growth”.
